The results in this text go back to US4956294A, “Culture of Streptoverticillium synroense for producing an antibacterial” (Merck & Co., Inc., priority 1989, dated 1990).

Each structure is given as a SMILES string. Values after ≈ are worked out from the molar mass of the structure shown. “Also recorded” adds a separate entry of the source.

The test system of experiment [1] is Streptococcus faecium 2820. Kind of experiment: Inhibition zone, agar plate. The class given is cell-based. Particulars: Enterococcus faecium, 15λ, read-out: Inhibition Zone Diameter.
For a further experiment, the system named is Sarcina lutea 1101 (934). The experiment in a line: Inhibition zone, agar plate. The class given is cell-based. Particulars: Micrococcus luteus, 15λ, read-out: Inhibition Zone Diameter.
In another experiment the test system is C. perfringens 3510. Kind of experiment: microbe, parasite or virus in culture. The class given is cell-based. To be noted: Clostridium perfringens, 3510, 48 h.
The subject of experiment [2] is Bordetella bronchiseptica (3771). The experiment in a line: Protection and survival of infected mice. Particulars: intraperitoneal.
Experiment [3] concerns Vibrio percolans 1272 (8461). The experiment in a line: Inhibition zone, agar plate. The class given is cell-based. Particulars: Comamonas terrigena, 15λ, read-out: Inhibition Zone Diameter.
In experiment [4] the test system is Corynebacterium pseudodiph. 261 (9742). Kind of experiment: Inhibition zone, agar plate. The class given is cell-based. To be noted: read-out: Inhibition Zone Diameter.

`C[C@H](CNC(=O)[C@H]1N=C(c2cccc(O)c2O)O[C@@H]1C)C(=O)N[C@@H]1CCCN(O)C1=O` [L-654,040, 2-(2,3-dihydroxyphenyl)-4,5-dihydro-N-[3-[(1-hydroxy-2-oxo-3(R)-piperidinyl)-amino]-2(R)-methyl-3-oxopropyl]-5R-methyl-4S-oxazolecarboxamide]: the zone of inhibition at 500 µg/mL in experiment [1] (0.5 mg/ml in distilled H2O) was 0 mm; in the experiment with Sarcina lutea 1101 (934) (0.5 mg/ml in distilled H2O), 12 mm; in experiment [3] (0.5 mg/ml in distilled H2O) it was 18 mm; in experiment [4], 28 mm. Also, the zone of inhibition at 2000 µg/mL in experiment [1] (2 mg/ml in distilled H2O) was determined as 0 mm; in the experiment with Sarcina lutea 1101 (934) (2 mg/ml in distilled H2O), 17 mm; in experiment [3] (2 mg/ml in distilled H2O), 25 mm; in experiment [4] (2 mg/ml in distilled H2O, 15λ) it was 33 mm. Besides, in the experiment on C. perfringens 3510, the MIC turned out to be 128 µg/mL (≈ 295 µM). In experiment [2], the protection against infection result is “did not protect”. For the same molecule, in experiment [2] (160 mg/kg x 2, significant only in Pasteurella-infected animals), the survival time entry is listed as “prolongation of survival time was observed; also recorded: did prolong the survival time”.
